Source: ChEMBL document CHEMBL6134848, “Deuteration Strategy-Inspired Design of Novel Diarylpyrimidine Derivatives as Potent Non-Nucleoside Reverse Transcriptase Inhibitors Featuring Improved Efficacy, Selectivity, and Druggability” (J Med Chem, 2025)

Tests used:
[1] = target: T1, Cytochrome P450 2B6 (Homo sapiens, UniProt P20813); experiment: Inhibition of CYP2B6 in human liver microsomes using bupropion as substrate incubated for 15 to 45 mins by; format: ADME, Microsome
T1 sequence (P20813 whole entry): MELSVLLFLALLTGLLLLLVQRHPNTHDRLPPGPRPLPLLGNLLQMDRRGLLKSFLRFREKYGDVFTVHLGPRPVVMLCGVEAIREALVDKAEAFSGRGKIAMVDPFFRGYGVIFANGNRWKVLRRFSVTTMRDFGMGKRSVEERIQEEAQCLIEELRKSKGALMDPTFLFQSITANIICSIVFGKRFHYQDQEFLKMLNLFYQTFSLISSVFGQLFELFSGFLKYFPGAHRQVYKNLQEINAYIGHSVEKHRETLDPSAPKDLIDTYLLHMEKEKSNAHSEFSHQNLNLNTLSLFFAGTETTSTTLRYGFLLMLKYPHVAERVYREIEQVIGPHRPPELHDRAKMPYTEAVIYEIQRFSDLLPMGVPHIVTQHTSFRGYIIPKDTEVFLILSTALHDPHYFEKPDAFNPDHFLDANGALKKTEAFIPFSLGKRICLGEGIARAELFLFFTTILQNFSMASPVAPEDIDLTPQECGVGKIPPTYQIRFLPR

[2] = test system: Human immunodeficiency virus 1; experiment: Antiviral activity against drug-resistant HIV-1 harboring RT L100I mutant infected in human MT4 cells assessed as protection against virus-induced cytopathicity measured after 5 days post-infection by MTT assay; format: functional, organism-based; details: Human immunodeficiency virus 1, MT4, 120 h
[3] = test system: Human immunodeficiency virus 1; experiment: Potency index, ratio of EFV EC50 to test compound EC50 for antiviral activity against wild-type HIV-1 IIIB infected in human MT4 cells assessed as protection against virus-induced cytopathicity measured after 5 days post-infection by MTT assay; format: functional
[4] = Acute toxicity in ICR mouse assessed as drug tolerance at 2000 mg/kg, IG measured for 14 days; format: organism-based; details: in vivo, po, 336 h, time 14 day
[5] = Acute toxicity in ICR mouse assessed as animal mortality at 2000 mg/kg, IG measured for 14 days; format: organism-based; details: in vivo, po, 336 h, time 14 day
[6] = Drug metabolism in human liver microsomes assessed as metabolic fraction at 1 uM measured up to 45 mins by LC/MS/MS analysis; format: ADME, Microsome; details: microsomes, 0.75 h, 1 µM
[7] = Selectivity index, ratio of CC50 for cytotoxicity against human MT4 cells to EC50 for antiviral activity against wild-type HIV-1 IIIB infected in human MT4 cells; format: toxicity, cell-based; details: read-out: Ratio CC50/EC50
[8] = MRT (0 to t) in Sprague-Dawley rat at 1 mg/kg, iv measured for 0.083 to 24 hrs by LC-MS/MS analysis; format: ADME, organism-based; details: in vivo, time 0.083-24 hrs
[9] = target: T2, Cytochrome P450 2C8 (Homo sapiens, UniProt P10632); experiment: Inhibition of CYP2C8 in human liver microsomes using amodiaquine as substrate incubated for 15 to 45 mins by; format: ADME, Microsome
T2 sequence (P10632 whole entry): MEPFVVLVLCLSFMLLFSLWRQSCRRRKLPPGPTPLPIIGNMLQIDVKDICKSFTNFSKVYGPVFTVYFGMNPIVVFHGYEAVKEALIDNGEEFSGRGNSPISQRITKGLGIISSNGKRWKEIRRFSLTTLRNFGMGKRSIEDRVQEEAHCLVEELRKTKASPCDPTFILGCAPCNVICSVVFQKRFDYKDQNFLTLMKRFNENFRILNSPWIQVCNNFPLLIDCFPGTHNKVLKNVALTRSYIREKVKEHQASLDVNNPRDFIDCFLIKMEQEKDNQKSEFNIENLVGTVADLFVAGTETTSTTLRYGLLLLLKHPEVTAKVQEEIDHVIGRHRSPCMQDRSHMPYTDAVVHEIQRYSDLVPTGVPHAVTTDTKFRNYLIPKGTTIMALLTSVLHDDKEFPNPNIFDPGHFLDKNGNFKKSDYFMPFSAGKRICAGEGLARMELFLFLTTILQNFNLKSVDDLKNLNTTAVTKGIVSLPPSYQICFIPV

[10] = test system: Human immunodeficiency virus 1; experiment: Potency index, ratio of NVP EC50 to test compound EC50 for antiviral activity against wild-type HIV-1 IIIB infected in human MT4 cells assessed as protection against virus-induced cytopathicity measured after 5 days post-infection by MTT assay; format: functional
[11] = Acute toxicity in ICR mouse assessed as body weight change at 2000 mg/kg, IG measured for 14 days; format: organism-based; details: in vivo, po, 336 h, time 14 day
[12] = test system: Human immunodeficiency virus 1; experiment: Potency index, ratio of ETR EC50 to test compound EC50 for antiviral activity against wild-type HIV-1 IIIB infected in human MT4 cells assessed as protection against virus-induced cytopathicity measured after 5 days post-infection by MTT assay; format: functional
[13] = Tmax in Sprague-Dawley rat at 10 mg/kg, po measured for 0.083 to 24 hrs by LC-MS/MS analysis; format: ADME, organism-based; details: in vivo, time 0.083-24 hrs
[14] = target: Cytochrome P450 2C19 (Homo sapiens, UniProt P33261); experiment: Inhibition of CYP2C19 in human liver microsomes using S-mephenytoin as substrate incubated for 15 to 45 mins by; format: ADME, Microsome
Chain of Cytochrome P450 2C19 (P33261 whole entry): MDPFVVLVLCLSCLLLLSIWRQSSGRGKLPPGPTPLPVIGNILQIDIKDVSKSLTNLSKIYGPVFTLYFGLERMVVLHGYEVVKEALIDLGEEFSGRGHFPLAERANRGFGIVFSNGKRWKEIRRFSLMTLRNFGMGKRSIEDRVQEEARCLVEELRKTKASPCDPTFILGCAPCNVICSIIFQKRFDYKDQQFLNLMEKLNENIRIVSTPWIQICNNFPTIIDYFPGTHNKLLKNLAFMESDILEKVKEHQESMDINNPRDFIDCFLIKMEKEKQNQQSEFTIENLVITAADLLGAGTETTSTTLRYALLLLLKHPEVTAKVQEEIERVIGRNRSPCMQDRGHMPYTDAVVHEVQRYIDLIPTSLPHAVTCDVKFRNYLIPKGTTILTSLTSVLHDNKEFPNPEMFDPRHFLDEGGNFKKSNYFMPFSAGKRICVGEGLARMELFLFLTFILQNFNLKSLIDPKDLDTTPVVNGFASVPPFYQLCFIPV

[15] = Metabolic stability in dog liver microsomes assessed as half life at 1 uM measured up to 45 mins by LC/MS/MS analysis; format: ADME, Canis lupus familiaris, Microsome; details: microsomes, 0.75 h, 1 µM
[16] = Stability in human plasma assessed as compound remaining at 1 uM measured after 3 hrs by LC-MS/MS analysis; format: ADME, cell-free; details: read-out: Stability
[17] = Protein binding in human plasma assessed as unbound fraction at 1 uM incubated for 6 hrs; format: ADME, cell-free
[18] = target: Cytochrome P450 2C9 (Homo sapiens, UniProt P11712); experiment: Inhibition of CYP2C9 in human liver microsomes using diclofenac as substrate incubated for 15 to 45 mins by; format: ADME, Microsome
Chain of Cytochrome P450 2C9 (P11712 whole entry): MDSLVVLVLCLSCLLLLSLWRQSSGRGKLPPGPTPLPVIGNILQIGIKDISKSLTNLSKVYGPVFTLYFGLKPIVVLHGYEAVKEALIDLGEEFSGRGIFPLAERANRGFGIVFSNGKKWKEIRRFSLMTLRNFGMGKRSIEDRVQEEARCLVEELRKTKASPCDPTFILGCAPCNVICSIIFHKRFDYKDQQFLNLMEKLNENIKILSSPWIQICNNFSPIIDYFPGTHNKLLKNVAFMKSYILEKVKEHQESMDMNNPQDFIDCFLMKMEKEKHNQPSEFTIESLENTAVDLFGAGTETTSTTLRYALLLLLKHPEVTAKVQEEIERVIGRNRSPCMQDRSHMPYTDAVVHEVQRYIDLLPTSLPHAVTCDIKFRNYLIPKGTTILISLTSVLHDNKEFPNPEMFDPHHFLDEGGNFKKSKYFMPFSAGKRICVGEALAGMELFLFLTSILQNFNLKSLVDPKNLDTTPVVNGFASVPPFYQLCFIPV

[19] = target: Human immunodeficiency virus type 1 reverse transcriptase (Human immunodeficiency virus 1, UniProt Q72547); experiment: Inhibition of recombinant wild type HIV-1 reverse transcriptase incubated for 40 mins in presence of poly(rA) template/oligo(dT)16 primer by Pico-Green dye based analysis
[20] = Acute toxicity in ICR mouse assessed as pathological change in heart at 2000 mg/kg, IG measured for 14 days by H and E staining based analysis; format: organism-based; details: in vivo, po, 336 h, time 14 day
[21] = Acute toxicity in ICR mouse assessed as pathological change in spleen at 2000 mg/kg, IG measured for 14 days by H and E staining based analysis; format: organism-based; details: in vivo, po, 336 h, time 14 day
[22] = Metabolic stability in human liver microsomes assessed as half life at 1 uM measured up to 45 mins by LC/MS/MS analysis; format: ADME, Microsome; details: microsomes, 0.75 h, 1 µM
[23] = Cmax in Sprague-Dawley rat at 10 mg/kg, po measured for 0.083 to 24 hrs by LC-MS/MS analysis; format: ADME, organism-based; details: in vivo, time 0.083-24 hrs
[24] = target: Cytochrome P450 3A4 (Homo sapiens, UniProt P08684); experiment: Inhibition of CYP3A4 in human liver microsomes using midazolam as substrate incubated for 15 to 45 mins by; format: ADME, Microsome
Chain of Cytochrome P450 3A4 (P08684 whole entry): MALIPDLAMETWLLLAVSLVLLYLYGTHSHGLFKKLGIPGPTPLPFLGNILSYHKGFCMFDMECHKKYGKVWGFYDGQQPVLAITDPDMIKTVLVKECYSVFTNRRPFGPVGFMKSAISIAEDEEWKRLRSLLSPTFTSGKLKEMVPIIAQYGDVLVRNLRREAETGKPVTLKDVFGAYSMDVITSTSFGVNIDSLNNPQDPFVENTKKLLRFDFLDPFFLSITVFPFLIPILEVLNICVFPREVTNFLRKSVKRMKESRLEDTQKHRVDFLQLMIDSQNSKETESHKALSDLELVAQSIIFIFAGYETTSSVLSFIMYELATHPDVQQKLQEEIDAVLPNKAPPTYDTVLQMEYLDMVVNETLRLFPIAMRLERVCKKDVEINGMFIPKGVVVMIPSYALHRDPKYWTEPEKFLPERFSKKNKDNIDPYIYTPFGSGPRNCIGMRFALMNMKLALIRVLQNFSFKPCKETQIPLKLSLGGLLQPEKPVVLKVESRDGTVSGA

[25] = Half life in Sprague-Dawley rat at 1 mg/kg, iv measured for 0.083 to 24 hrs by LC-MS/MS analysis; format: ADME, organism-based; details: in vivo, time 0.083-24 hrs
[26] = Half life in Sprague-Dawley rat at 10 mg/kg, po measured for 0.083 to 24 hrs by LC-MS/MS analysis; format: ADME, organism-based; details: in vivo, time 0.083-24 hrs

## [2H]C([2H])([2H])c1cc(C#N)cc(C([2H])([2H])[2H])c1Oc1nc(NC2CCN(Cc3ccc(S(N)(=O)=O)cc3)CC2)nc2ccsc12
[1]
  IC50: > 10 µM
[2]
  EC50: 0.00261 µM
[3]
  Ratio EC50: 5
[4]
  Activity: Non-toxic
[5]
  Activity: Non-toxic
[6]
  Fm: 14.8%
[7]
  selectivity ratio: > 227000
[8]
  MRT last: 49.2 min
[9]
  IC50: > 10 µM
[10]
  Ratio EC50: 256
[11]
  Activity: Non-toxic
[12]
  Ratio EC50: 3.3
[13]
  Tmax: 30 min
[14]
  IC50: > 10 µM
[15]
  t1/2: 20.4 min
[16]
  remaining at 3 h, 1 µM: 92.2%
[17]
  Fu: 0.453%
[18]
  IC50: > 10 µM
[19]
  IC50: 0.19 µM
[20]
  Activity: Non-toxic
[21]
  Activity: Non-toxic
[22]
  t1/2: 18.6 min
[23]
  Cmax: 553 ng/mL
[24]
  IC50: > 10 µM
[25]
  half-life: 58.2 min
[26]
  half-life: 94.8 min
